Reference: ChEMBL document CHEMBL1133304, “Design and synthesis of potent thiol-based inhibitors of endothelin converting enzyme-1” (Bioorg Med Chem Lett, 2000)

Tests used:
Rattus norvegicus [1] = assay: Intravenously injected compound (0.3 nmol/kg) was tested in rat for the inhibitory activity against endothelin-1 (ET-1) pressor response after 24 hour; type: functional
Rattus norvegicus [2] = assay: Intravenously injected compound (0.3 nmol/kg) was tested in rat for the inhibitory activity against endothelin-1 (ET-1) pressor response after 8 hour; type: functional
[3] = target: T1, Endothelin-converting enzyme 1 (Homo sapiens, UniProt P42892); assay: In vitro inhibition of human Endothelin converting Enzyme-1 activity
T1 sequence (P42892 whole entry): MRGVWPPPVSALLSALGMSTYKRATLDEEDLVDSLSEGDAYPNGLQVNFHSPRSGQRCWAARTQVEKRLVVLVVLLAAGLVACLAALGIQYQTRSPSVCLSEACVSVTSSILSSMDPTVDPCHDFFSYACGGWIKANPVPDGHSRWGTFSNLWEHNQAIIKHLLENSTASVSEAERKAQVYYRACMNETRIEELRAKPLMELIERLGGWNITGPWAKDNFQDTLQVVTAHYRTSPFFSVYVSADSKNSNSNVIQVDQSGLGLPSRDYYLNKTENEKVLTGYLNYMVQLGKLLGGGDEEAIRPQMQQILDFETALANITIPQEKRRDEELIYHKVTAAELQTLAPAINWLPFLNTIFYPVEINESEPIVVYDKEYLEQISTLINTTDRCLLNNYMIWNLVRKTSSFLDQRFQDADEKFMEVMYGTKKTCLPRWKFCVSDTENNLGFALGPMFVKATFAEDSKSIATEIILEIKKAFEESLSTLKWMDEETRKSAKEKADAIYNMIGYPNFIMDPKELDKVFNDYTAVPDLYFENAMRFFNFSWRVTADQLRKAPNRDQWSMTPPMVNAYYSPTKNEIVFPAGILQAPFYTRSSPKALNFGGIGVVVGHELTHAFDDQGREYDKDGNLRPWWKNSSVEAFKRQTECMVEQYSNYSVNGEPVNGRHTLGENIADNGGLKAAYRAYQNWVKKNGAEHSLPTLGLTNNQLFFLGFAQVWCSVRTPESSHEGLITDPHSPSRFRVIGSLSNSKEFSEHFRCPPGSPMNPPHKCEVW

IC50 [3] [nM] | SMILES | Inhibition (Rattus norvegicus [1]) [%] | Inhibition (Rattus norvegicus [2]) [%]
– | CCC[C@H](SC(C)=O)C(=O)NC1(C(=O)N[C@@H](Cc2ccc(-c3ccccc3)cc2)C(=O)OC)CCCC1 | 30 | 75
77 | CC(C)[C@H](S)C(=O)NC1(C(=O)N[C@@H](Cc2ccc(-c3ccccc3)cc2)C(=O)O)CCCC1 | – | –
